# Laboratory results reported in EP0423240B1, “MODULATION OF VIRUS-HOST CELL INTERACTIONS USING CYCLIC OLIGOSACCHARIDES” (THE TRUSTEES OF THE UNIVERSITY OF PENNSYLVANIA, priority 1988, dated 1990).
# Columns and labels:
# Format in all cases: cell-based
# HTLV III -B (HIV-1 IIIB) = assay: Fusion inhibition (syncytia) assay, Sup-T1 cells with HTLV-III B infected H9 cells; parameters: key: 4=Full; 0=None; S=Small; M=Medium; L=Large; conditions: degree and size of syncytia
# Experimental: The fusion inhibition (syncytia) assay was performed according to published procedures (Dalgleish et al., Nature 312:763, (1984) and Sodroski et al., Nature 322: 470, (1986)). Sup-T1 cells are favored target cells for their rapid degree of cell fusion when co-cultured with HIV-1 producing cell lines. Cell culture is performed according to the method of Dalgleish et al. (Nature 312:763, (1984)). Sup-T1 cells are plated in 96 well plates (10⁵ cells/well in RPMI 1640 + 10% FCS) and incubated with or without dilutions of beta-cyclodextrin tetradecasulfate (β-CD-TDS or β-CD-14S) at 37°C. HTLV-III B (HIV-1) or WMJ infected H9 cells are then added 5x10⁴/well and the number of multinucleated giant cells per 16 X field counted with a Zeiss inverted field phase contrast microscope after 18 hours. Syncytia are easily identified and inhibition of syncytia by different dilutions of β-CD-TDS can be compared with to β-CD-TDS free preparations. It will be apparent to those skilled in the art, that the formation of syncytia between cells susceptible of infection by HIV-1 and cells expressing HIV-1 envelope glycoproteins represents the same molecular phenomena involved in infection by HIV-1, but is far less hazardous and may be employed to study the mechanisms of infection and the effects of modulating factors on HIB-1 intracellular infection mechanisms, without fear of exposure to the virus itself.
# For screening of different dilutions, 10-fold dilutions of a 150 micromolar solution of β-CD-TDS were prepared and directly added to syncytia assays as described above.
# (§1) For the assay of HIV-1 fusion, Supt T1 cells were used as target cells. They fuse rapidly when cocultured with HIV-1 (H9/IIIb) producing cell lines. For the assay of HIV-2 mediated cell fusion, H9 cells were used as target cells. They fuse rapidly when cocultured with HIV-2 (CEMROD-2) producing cell lines. HIV infected cells were plated in 96 well plates (10⁴ cells/well in RPMI 1640 + 10% FCS) and incubated with or without dilution of compounds for 30 minutes at 37°C. Target cells are then added 5 x 10⁵/well and the number of syncytia are qualitatively determined after the incubation periods described in the text.
# In a series of preliminary experiments, a syncytia assay induced by HIV-1 fusion of Sup-T1 cells was performed as described in Section 6.1.1, supra.
# HIV-1 [1] = assay: Structural studies: electron microscopy of virus particle production by infected cells
# Experimental: Virus infected cells were washed and resuspended in fresh media in the presence or absence of test compounds. After a 48 hour culture period the cultures were pelleted and fixed in 1% glutaraldehyde, 0.1 M Cacodylate-HC1, pH 7.3 followed by OsO₄, and embedded in spur resin for examination of these sections by electron microscopy.
# To further address this point, we analyzed virus particle production in the presence of specifically substituted cyclodextrins by electron microscopic examination. Virus infected cells were washed and resuspended in fresh media in the presence or absence of test compounds. After a 48 hour culture period, the cultures were pelleted and fixed in 1% glutaraldehyde, 0.1 M Cacodylate-HC1, pH 7.3 followed by OsO₄ and embedded in spur resin for examination of thin sections.
# HIV-1 [2] = assay: HIV-induced syncytia formation over time, comparison with dextran sulfates; conditions: during the culture period (48 hours)
# Experimental: Figure 6 compares the effects of dextran polysulfate and substituted β-cyclodextrins on HIV infectivity. In (A) degree of syncytia inhibition is shown on the ordinate for each compound added. SUL = 600 µM β-CD-14S, AL = 600 µM unsubstituted β-CD, Pro = 600 µM propoxylated β-CD, 2MET = 300 µM methoxylated β-CD, DS5 = 600 µM dextran sulfate 5,000, DS500 = 600 µM dextran sulfate 500,000. Results for each of 3 time points are shown. In (B) similar results utilizing reverse transcriptase assays are shown. Infectious virus particles were incubated in the presence of sulfated β-cyclodextrin (lane 1), dextran sulfate 5000 (lane 2) or media (lane 3) for 6 days at which time cells were resuspended in fresh media and allowed to incubate a further 10 days before being harvested. Reverse transcriptase activity was assayed as described in Section 6.1, infra. 1/2 dilutions of the compound added are shown from bottom (highest concentration at 2.5 mM) to top (lowest concentration).
# For the assay of HIV-1 fusion, Supt T1 cells were used as target cells. They fuse rapidly when cocultured with HIV-1 (H9/IIIb) producing cell lines. For the assay of HIV-2 mediated cell fusion, H9 cells were used as target cells. […] Target cells are then added 5 x 10⁵/well and the number of syncytia are qualitatively determined after the incubation periods described in the text.
# HIV-2 = HIV-2 induced syncytia assay, ROD-2 infected cells cocultured with H9 target cells; parameters: key to number of syncytia formed: 4 being multiple syncytia widely distributed; 0 indicating no syncytia observed; s=small; m=medium; L=large syncytia; conditions: for number of syncytia formed: HIV-2, number and size of syncytia
# Experimental: as §1, with “text. […]” for “text.”
# HIV-1 [3] = assay: Reverse transcriptase levels of cells already infected with HIV-1; conditions: reverse transcriptase activity, virus particle production, virus particle morphology
# Experimental: Virus infected cells were pelleted by centrifugation and 50 µl of culture suprenatant was collected from each well for assay. Culture supernatant (25 µl) was plated in 96 well round bottomed plates and 50 µl of transcriptase cocktail was added to each well. Cocktail is 50 mM Tris-HC1, pH 8.0, 20 mM DTT, 0.6 mM MnC1₂, 60 mM NaC1, 0.05% NP-40, 5 µg/ml dt (oligodeoxythymidilic acid), 10 µg/ml poly A (polyriboadenylic acid), 10 µM dTTP, 1 Ci/mm ³²P dTTP. Plates were then incubated for 60 minutes at 37°C. After incubation samples were spotted onto Whatman DEAE-81 paper, washed and analyzed by counting or direct autoradiography.
# In order to determine the specific sites of viral pathogenesis interrupted by the cyclodextrin compounds, we assayed the ability of the cyclodextrins treatment to effect reverse transcriptase levels of cells already infected with HIV-1. In contrast to the results observed when virus was added to uninfected cells, (see supra, Section 6.2.1.) no significant inhibition of reverse transcriptase was observed.
substance,measurement,setting,value
beta-cyclodextrin tetradecasulfate [Beta-CD-14S],Degree of Syncytia Formation,HTLV III -B (HIV-1 IIIB); 0.15 micromolar β-CD-TDS,4 L
same,Degree of Syncytia Formation,HTLV III -B (HIV-1 IIIB); 1.50 micromolar β-CD-TDS,4 L
same,Degree of Syncytia Formation,HTLV III -B (HIV-1 IIIB); 15.0 micromolar β-CD-TDS,4 L
same,Degree of Syncytia Formation,HTLV III -B (HIV-1 IIIB); 150 micromolar β-CD-TDS,2 M
same,Degree of Syncytia Formation,HTLV III -B (HIV-1 IIIB); 1500 micromolar β-CD-TDS,0
same,morphology of viral particles produced,"HIV-1 [1]; 300 µM, 48 hour culture",typical of the lentivirus family
same,morphology of the viral particles produced,"HIV-1 [1]; infected H9 cells, 1 mM",mature morphology
same,anti-syncytial activity,HIV-1 [2],remained unchanged
same,number of syncytia formed,HIV-2; 1.3 mM,0
same,number of syncytia formed,HIV-2; 2.5 mM,0
same,number of syncytia formed,HIV-2; .01 mM,4 L
same,number of syncytia formed,HIV-2; .02 mM,4 L
same,number of syncytia formed,HIV-2; .04 mM,4 L
same,number of syncytia formed,HIV-2; .08 mM,3 L
same,number of syncytia formed,HIV-2; .16 mM,2m
same,number of syncytia formed,HIV-2; .32 mM,1 s
same,number of syncytia formed,HIV-2; .63 mM,0
same,inhibition of syncytia formation mediated by ROD-2,HIV-2; result in words,inhibited syncytia formation
same,effects on cells that have already been infected with HIV-1,HIV-1 [3],no detectable effects
